Columns and labels:
Type in all cases: functional
[1] = system: SW-620; assay: Anticancer activity against human SW620 cells assessed cell growth at 10 uM after 48 hrs by sulforhodamine B assay relative to control
[2] = system: T47D; assay: Anticancer activity against human T47D cells assessed cell growth at 10 uM after 48 hrs by sulforhodamine B assay relative to control
[3] = system: MDA-MB-435; assay: Anticancer activity against human MDA-MB-435 cells assessed cell growth at 10 uM after 48 hrs by sulforhodamine B assay relative to control
[4] = system: RXF 393; assay: Anticancer activity against human RXF393 cells assessed cell growth at 10 uM after 48 hrs by sulforhodamine B assay relative to control
[5] = system: A549; assay: Anticancer activity against human A549 cells assessed cell growth at 10 uM after 48 hrs by sulforhodamine B assay relative to control
[6] = system: SK-MEL-28; assay: Anticancer activity against human SK-MEL-28 cells assessed cell growth at 10 uM after 48 hrs by sulforhodamine B assay relative to control
[7] = system: CAKI-1; assay: Anticancer activity against human Caki1 cells assessed cell growth at 10 uM after 48 hrs by sulforhodamine B assay relative to control
[8] = system: MDA-MB-468; assay: Anticancer activity against human MDA-MB-468 cells assessed cell growth at 10 uM after 48 hrs by sulforhodamine B assay relative to control
[9] = system: LOX IMVI; assay: Anticancer activity against human LOXIMVI cells assessed cell growth at 10 uM after 48 hrs by sulforhodamine B assay relative to control
[10] = system: COLO 205; assay: Anticancer activity against human COLO205 cells assessed cell growth at 10 uM after 48 hrs by sulforhodamine B assay relative to control
[11] = system: SF-539; assay: Anticancer activity against human SF539 cells assessed cell growth at 10 uM after 48 hrs by sulforhodamine B assay relative to control
[12] = system: NCI-H322M; assay: Anticancer activity against human NCI-H322M cells assessed cell growth at 10 uM after 48 hrs by sulforhodamine B assay relative to control
[13] = system: SNB-19; assay: Anticancer activity against human SNB19 cells assessed cell growth at 10 uM after 48 hrs by sulforhodamine B assay relative to control
[14] = system: UO-31; assay: Anticancer activity against human UO31 cells assessed cell growth at 10 uM after 48 hrs by sulforhodamine B assay relative to control
[15] = system: SN12C; assay: Anticancer activity against human SN12C cells assessed cell growth at 10 uM after 48 hrs by sulforhodamine B assay relative to control
[16] = system: NCI-H23; assay: Anticancer activity against human NCI-H23 cells assessed cell growth at 10 uM after 48 hrs by sulforhodamine B assay relative to control
[17] = system: OVCAR-4; assay: Anticancer activity against human OVCAR4 cells assessed cell growth at 10 uM after 48 hrs by sulforhodamine B assay relative to control
[18] = system: BT-549; assay: Anticancer activity against human BT549 cells assessed cell growth at 10 uM after 48 hrs by sulforhodamine B assay relative to control
[19] = system: MCF7; assay: Anticancer activity against human MCF7 cells assessed cell growth at 10 uM after 48 hrs by sulforhodamine B assay relative to control
[20] = system: OVCAR-3; assay: Anticancer activity against human OVCAR-3 cells assessed cell growth at 10 uM after 48 hrs by sulforhodamine B assay relative to control
[21] = system: SR; assay: Anticancer activity against human SR cells assessed cell growth at 10 uM after 48 hrs by sulforhodamine B assay relative to control
[22] = system: HL-60(TB); assay: Anticancer activity against human HL-60(TB) cells assessed cell growth at 10 uM after 48 hrs by sulforhodamine B assay relative to control
[23] = system: CCRF-CEM; assay: Anticancer activity against human CCRF-CEM cells assessed cell growth at 10 uM after 48 hrs by sulforhodamine B assay relative to control
[24] = system: KM12; assay: Anticancer activity against human KM12 cells assessed cell growth at 10 uM after 48 hrs by sulforhodamine B assay relative to control
[25] = system: HCC 2998; assay: Anticancer activity against human HCC2998 cells assessed cell growth at 10 uM after 48 hrs by sulforhodamine B assay relative to control
[26] = system: PC-3; assay: Anticancer activity against human PC3 cells assessed cell growth at 10 uM after 48 hrs by sulforhodamine B assay relative to control
[27] = system: SK-OV-3; assay: Anticancer activity against human SKOV3 cells assessed cell growth at 10 uM after 48 hrs by sulforhodamine B assay relative to control
[28] = system: M14; assay: Anticancer activity against human M14 cells assessed cell growth at 10 uM after 48 hrs by sulforhodamine B assay relative to control
[29] = system: A498; assay: Anticancer activity against human A498 cells assessed cell growth at 10 uM after 48 hrs by sulforhodamine B assay relative to control
[30] = system: U-251; assay: Anticancer activity against human U251 cells assessed cell growth at 10 uM after 48 hrs by sulforhodamine B assay relative to control
[31] = system: DU-145; assay: Anticancer activity against human DU145 cells assessed cell growth at 10 uM after 48 hrs by sulforhodamine B assay relative to control
[32] = system: UACC-62; assay: Anticancer activity against human UACC62 cells assessed cell growth at 10 uM after 48 hrs by sulforhodamine B assay relative to control
[33] = system: NCI/ADR-RES; assay: Anticancer activity against human NCI/ADR-RES cells assessed cell growth at 10 uM after 48 hrs by sulforhodamine B assay relative to control
[34] = system: Malme-3M; assay: Anticancer activity against human MALME-3M cells assessed cell growth at 10 uM after 48 hrs by sulforhodamine B assay relative to control
[35] = system: NCI-H522; assay: Anticancer activity against human NCI-H522 cells assessed cell growth at 10 uM after 48 hrs by sulforhodamine B assay relative to control
[36] = system: MOLT-4; assay: Anticancer activity against human MOLT4 cells assessed cell growth at 10 uM after 48 hrs by sulforhodamine B assay relative to control
[37] = system: IGROV-1; assay: Anticancer activity against human IGROV1 cells assessed cell growth at 10 uM after 48 hrs by sulforhodamine B assay relative to control
[38] = system: OVCAR-8; assay: Anticancer activity against human OVCAR8 cells assessed cell growth at 10 uM after 48 hrs by sulforhodamine B assay relative to control
[39] = Anticancer activity against human RPMI8266 cells assessed cell growth at 10 uM after 48 hrs by sulforhodamine B assay relative to control
[40] = system: HCT-116; assay: Anticancer activity against human HCT116 cells assessed cell growth at 10 uM after 48 hrs by sulforhodamine B assay relative to control
[41] = system: HT-29; assay: Anticancer activity against human HT-29 cells assessed cell growth at 10 uM after 48 hrs by sulforhodamine B assay relative to control
[42] = system: SNB-75; assay: Anticancer activity against human SNB75 cells assessed cell growth at 10 uM after 48 hrs by sulforhodamine B assay relative to control
[43] = system: SF-295; assay: Anticancer activity against human SF295 cells assessed cell growth at 10 uM after 48 hrs by sulforhodamine B assay relative to control

Structure (SMILES): CCCCCCCCOS(=O)(=O)[O-].CCCCCCCC[n+]1ccn(C)c1
- Activity [1]: 86.25%
- Activity [2]: 80.27%
- Activity [3]: 55.5%
- Activity [4]: 84%
- Activity [5]: 82.78%
- Activity [6]: 112.15%
- Activity [7]: 56.81%
- Activity [8]: 38.15%
- Activity [9]: 68.86%
- Activity [10]: 82.4%
- Activity [11]: 65.31%
- Activity [12]: 89.12%
- Activity [13]: 82.22%
- Activity [14]: 71.08%
- Activity [15]: 92.64%
- Activity [16]: 56.59%
- Activity [17]: 60.6%
- Activity [18]: 67.86%
- Activity [19]: 75.57%
- Activity [20]: 81.64%
- Activity [21]: 82.08%
- Activity [22]: 82.07%
- Activity [23]: 97.94%
- Activity [24]: 76.23%
- Activity [25]: 69.81%
- Activity [26]: 94.3%
- Activity [27]: 82.36%
- Activity [28]: 84%
- Activity [29]: 90.58%
- Activity [30]: 71.96%
- Activity [31]: 96.94%
- Activity [32]: 85.18%
- Activity [33]: 94.1%
- Activity [34]: 80.15%
- Activity [35]: 57.44%
- Activity [36]: 86.99%
- Activity [37]: 72.84%
- Activity [38]: 76.03%
- Activity [39]: 116.11%
- Activity [40]: 55.91%
- Activity [41]: 67.62%
- Activity [42]: 84.66%
- Activity [43]: 80.68%

Structure (SMILES): CCCCCCCCCCCCCCCCCC[n+]1ccn(C)c1.FC(F)(F)C(F)(F)[P-](F)(F)(F)(C(F)(F)C(F)(F)F)C(F)(F)C(F)(F)F
- Activity [1]: -25.6%
- Activity [2]: 32.25%
- Activity [3]: -52.89%
- Activity [4]: -44.46%
- Activity [5]: -19.59%
- Activity [6]: -45.82%
- Activity [7]: -71.63%
- Activity [8]: 5.93%
- Activity [9]: -25.56%
- Activity [10]: 5.01%
- Activity [11]: -80.42%
- Activity [12]: 5.98%
- Activity [13]: -34.47%
- Activity [14]: -55.23%
- Activity [15]: -75.69%
- Activity [16]: -62.26%
- Activity [17]: -18.12%
- Activity [18]: -56.11%
- Activity [19]: 2.61%
- Activity [20]: -53.86%
- Activity [21]: 24.53%
- Activity [22]: 15.34%
- Activity [23]: 35.34%
- Activity [24]: -56.04%
- Activity [25]: -80.57%
- Activity [26]: -57.75%
- Activity [27]: 10.45%
- Activity [28]: -26.94%
- Activity [29]: -47.4%
- Activity [30]: -39.24%
- Activity [31]: 7.06%
- Activity [32]: -73.94%
- Activity [33]: -50.87%
- Activity [34]: -51.72%
- Activity [35]: -63.43%
- Activity [36]: 17.16%
- Activity [37]: -30.94%
- Activity [38]: -31.79%
- Activity [39]: 49.96%
- Activity [40]: -57.3%
- Activity [41]: -41.19%
- Activity [42]: -47.53%
- Activity [43]: -26.82%

Structure (SMILES): CCCCCCCC[n+]1ccn(C)c1.F[P-](F)(F)(F)(F)F
- Activity [1]: 73.41%
- Activity [2]: 73.53%
- Activity [3]: 52.08%
- Activity [4]: 83.22%
- Activity [5]: 82.75%
- Activity [6]: 95.95%
- Activity [7]: 56.66%
- Activity [8]: 21%
- Activity [9]: 70.03%
- Activity [10]: 66.27%
- Activity [11]: 67.02%
- Activity [12]: 89.47%
- Activity [13]: 82.83%
- Activity [14]: 77.77%
- Activity [15]: 86.03%
- Activity [16]: 51.9%
- Activity [17]: 52.01%
- Activity [18]: 60.35%
- Activity [19]: 69.15%
- Activity [20]: 86.51%
- Activity [21]: 95.02%
- Activity [22]: 91.74%
- Activity [23]: 84.88%
- Activity [24]: 71.32%
- Activity [25]: 75.73%
- Activity [26]: 74.78%
- Activity [27]: 69.29%
- Activity [28]: 81.87%
- Activity [29]: 85.75%
- Activity [30]: 70.41%
- Activity [31]: 99.58%
- Activity [32]: 90.01%
- Activity [33]: 97.14%
- Activity [34]: 62.25%
- Activity [35]: 65.58%
- Activity [36]: 86.46%
- Activity [37]: 76.25%
- Activity [38]: 78.96%
- Activity [39]: 135.51%
- Activity [40]: 56.26%
- Activity [41]: 61.42%
- Activity [42]: 70.71%
- Activity [43]: 79.54%

Structure (SMILES): CCCCCCCC[n+]1ccn(C)c1.F[B-](F)(F)F
- Activity [1]: 80.56%
- Activity [2]: 75.19%
- Activity [3]: 59.67%
- Activity [4]: 104.98%
- Activity [5]: 89.22%
- Activity [6]: 105.03%
- Activity [7]: 60.04%
- Activity [8]: 39.75%
- Activity [9]: 72.64%
- Activity [10]: 77.64%
- Activity [11]: 74.98%
- Activity [12]: 101.83%
- Activity [13]: 81.8%
- Activity [14]: 76.51%
- Activity [15]: 97.45%
- Activity [16]: 59.28%
- Activity [17]: 66.15%
- Activity [18]: 64.81%
- Activity [19]: 76.87%
- Activity [20]: 102.92%
- Activity [21]: 87.14%
- Activity [22]: 64.63%
- Activity [23]: 45.61%
- Activity [24]: 79.57%
- Activity [25]: 70.57%
- Activity [26]: 83.86%
- Activity [27]: 81.16%
- Activity [28]: 87.56%
- Activity [29]: 99.32%
- Activity [30]: 73.04%
- Activity [31]: 95.55%
- Activity [32]: 90.08%
- Activity [33]: 91.95%
- Activity [34]: 80.13%
- Activity [35]: 69.23%
- Activity [36]: 92.94%
- Activity [37]: 85.75%
- Activity [38]: 73.05%
- Activity [39]: 64.64%
- Activity [40]: 66.53%
- Activity [41]: 70.49%
- Activity [42]: 84.84%
- Activity [43]: 78.23%

Source: ChEMBL document CHEMBL1153245, “A profile of the in vitro anti-tumor activity of imidazolium-based ionic liquids” (2010)
